Laboratory results taken from ChEMBL document CHEMBL4312037, “Fragment hopping-based discovery of novel sulfinylacetamide-diarylpyrimidines (DAPYs) as HIV-1 nonnucleoside reverse transcriptase inhibitors” (Eur J Med Chem, 2020).
pEC50, pIC50: −log10 of the molar value.

How the values were obtained:
in vitro [1] = details: human, MT4 cells; MT4 cells infected with HIV1 3B K103N mutant
Description: Selectivity index, ratio of CC50 for cytotoxicity against human MT4 cells to EC50 for antiviral activity against HIV1 3B harbouring NNRTI K103N mutant infected in human MT4 cells

[2] = Cytotoxicity against human MT4 cells assessed as reduction in cell viability incubated for 5 days by MTT assay; assay type: cell-based
[3] = tested on: Human immunodeficiency virus 1; assay: Antiviral activity against HIV1 3B harbouring NNRTI K103N mutant infected in human MT4 cells assessed as virus-induced cytopathic effect incubated for 5 days by MTT assay; assay type: functional, organism-based; details: Human immunodeficiency virus 1, 3B, MT4, 120 h
[4] = tested on: Human immunodeficiency virus 1; assay: Antiviral activity against HIV1 3B infected in human MT4 cells assessed as virus-induced cytopathic effect incubated for 5 days by MTT assay; assay type: functional, organism-based; details: Human immunodeficiency virus 1, 3B, MT4, 120 h
in vitro [5] = details: human, MT4 cells; MT4 cells infected with HIV1 3B
Description: Selectivity index, ratio of CC50 for cytotoxicity against human MT4 cells to EC50 for antiviral activity against HIV1 3B infected in human MT4 cells

[6] = molecular target: Human immunodeficiency virus type 1 reverse transcriptase (Human immunodeficiency virus 1, UniProt Q72547)
Description: Inhibition of recombinant wild type HIV-1 His-tagged reverse transcriptase p66/p51 expressed in Escherichia coli JM109 using poly(rA)/oligo(dT)16 as template/primer incubated for 40 mins by pico-green based spectrofluorometric analysis

Row | SMILES | selectivity ratio (in vitro [1]) | CC50 at 120 h [2] [nM] | pEC50 [3] | pEC50 [4] | selectivity ratio (in vitro [5]) | pIC50 [6]
1 | COc1cc2nc([S+]([O-])CC(=O)Nc3cccc([N+](=O)[O-])c3)nc(Nc3c(Cl)cc(/C=C/C#N)cc3Cl)c2cc1OC (stereo not given) | ≥ 308 | ≥ 83200 | 6.57 | 6.37 | ≥ 197 | –
2 | COc1cc2nc(SCC(=O)Nc3ccc(C(F)(F)F)cc3)nc(Nc3c(Cl)cc(/C=C/C#N)cc3Cl)c2cc1OC | > 50 | > 197000 | 5.41 | 4.70 | > 10 | –
3 | COc1cc2nc([S+]([O-])CC(=O)Nc3ccc(C(F)(F)F)cc3)nc(Nc3c(C)cc(/C=C/C#N)cc3C)c2cc1OC (stereo not given) | 210 | 52200 | 6.60 | 6.35 | 116 | –
4 | COc1cc2nc(SCC(=O)Nc3ccc(C(F)(F)F)cc3)nc(Nc3c(C)cc(/C=C/C#N)cc3C)c2cc1OC | > 87 | > 211000 | 5.62 | 5.28 | > 40 | –
5 | COc1cc2nc(SCC(=O)Nc3ccc(S(N)(=O)=O)cc3)nc(Nc3c(Cl)cc(/C=C/C#N)cc3Cl)c2cc1OC | – | 116000 | – | < 3.94 | < 1 | –
6 | COc1cc2nc(SCC(=O)Nc3cccc(S(N)(=O)=O)c3)nc(Nc3c(Cl)cc(/C=C/C#N)cc3Cl)c2cc1OC | – | > 194000 | – | < 3.71 | > 1 | –
7 | COc1cc2nc(SCC(=O)Nc3cccc(Cl)c3)nc(Nc3c(Cl)cc(/C=C/C#N)cc3Cl)c2cc1OC | – | > 208000 | – | < 3.68 | > 1 | –
8 | COc1cc2nc([S+]([O-])CC(=O)Nc3cccc(S(N)(=O)=O)c3)nc(Nc3c(Cl)cc(/C=C/C#N)cc3Cl)c2cc1OC (stereo not given) | – | 67800 | – | < 4.17 | < 1 | –
9 | COc1cc2nc([S+]([O-])CC(=O)Nc3cccc(F)c3)nc(Nc3c(Cl)cc(/C=C/C#N)cc3Cl)c2cc1OC (stereo not given) | 137 | 9550 | 7.16 | 6.63 | 40 | –
10 | COc1cc2nc(SCC(=O)Nc3cc([N+](=O)[O-])ccc3F)nc(Nc3c(Cl)cc(/C=C/C#N)cc3Cl)c2cc1OC | – | > 199000 | – | < 3.70 | > 1 | –
11 | COc1cc2nc([S+]([O-])CC(=O)Nc3ccc(C)cc3)nc(Nc3c(Cl)cc(/C=C/C#N)cc3Cl)c2cc1OC (stereo not given) | 657 | 32200 | 7.31 | 6.49 | 98 | –
12 | COc1cc2nc([S+]([O-])CC(=O)Nc3ccccc3F)nc(Nc3c(Cl)cc(/C=C/C#N)cc3Cl)c2cc1OC (stereo not given) | > 37 | > 208000 | 5.25 | 4.77 | > 12 | –
13 | COc1cc2nc([S+]([O-])CC(=O)Nc3ccc(F)cc3)nc(Nc3c(C)cc(/C=C/C#N)cc3C)c2cc1OC (stereo not given) | 833 | 27400 | 7.48 | 6.88 | 209 | –
14 | COc1cc2nc(SCC(=O)Nc3ccc(F)cc3)nc(Nc3c(C)cc(/C=C/C#N)cc3C)c2cc1OC | ≥ 159 | ≥ 150000 | 6.03 | 5.64 | ≥ 66 | –
15 | COc1cc2nc([S+]([O-])CC(=O)Nc3cccc(C(F)(F)F)c3)nc(Nc3c(Cl)cc(/C=C/C#N)cc3Cl)c2cc1OC (stereo not given) | 35 | 21800 | 6.20 | 5.90 | 17 | –
16 | COc1cc2nc([S+]([O-])CC(=O)Nc3cccc(Cl)c3)nc(Nc3c(Cl)cc(/C=C/C#N)cc3Cl)c2cc1OC (stereo not given) | 1000 | 68900 | 7.16 | 6.50 | 220 | –
17 | COc1cc2nc(SCC(=O)Nc3ccc([N+](=O)[O-])cc3)nc(Nc3c(C)cc(/C=C/C#N)cc3C)c2cc1OC | > 612 | > 219000 | 6.45 | 6.13 | > 292 | 5.40
18 | COc1cc2nc([S+]([O-])CC(=O)Nc3ccc(Cl)cc3)nc(Nc3c(Cl)cc(/C=C/C#N)cc3Cl)c2cc1OC (stereo not given) | 550 | 14400 | 7.58 | 7.34 | 313 | –
19 | O=C1Nc2ccc(Cl)cc2[C@@](C#CC2CC2)(C(F)(F)F)O1 [EFAVIRENZ] | – | > 6340 | 6.91 | 8.42 | – | –
20 | Cc1cc(C#N)cc(C)c1Oc1nc(Nc2ccc(C#N)cc2)nc(N)c1Br [ETRAVIRINE] | – | > 4590 | 8.43 | 8.38 | – | –
21 | Cc1ccnc2c1NC(=O)c1cccnc1N2C1CC1 [NEVIRAPINE] | – | > 15000 | ≤ 4.95 | 6.63 | – | –
